Measurements reported in patent publication US12479831B2, “Substituted N(-methyl-D3)pyridazine-3-carboxamide or M-(methyl-D3)-nicotinamide compounds as IL-12, IL-23 and/or IFNα modulators” (BRISTOL-MYERS SQUIBB COMPANY, priority 2020, dated 2025).

These compounds were tested on IFNα-Induced STAT Phosphorylation in Human Whole Blood (assay: IFNα-Induced STAT Phosphorylation in Human Whole Blood). Settings: 1 h incubation with compound, 1000 U/mL recombinant human IFNα A/D for 15 min, pSTAT5 (pY694) median fluorescence intensity in CD3 positive population, read-out: hWB IC50.
Assay type: cell-based
`[2H]C([2H])([2H])NC(=O)c1cnc(Nc2ccc(OC)nn2)cc1Nc1cccc(-c2ncc(F)cn2)c1OC` [Example 74, 4-((3-(5-fluoropyrimidin-2-yl)-2-methoxyphenyl)amino)-6-((6-methoxypyridazin-3-yl)amino)-N-(methyl-d3)nicotinamide] showed an IC50 of 87 nM. In the case of `[2H]C([2H])([2H])NC(=O)c1nnc(NC(=O)C2CC2)cc1Nc1cccc(-c2cc(=O)n(C)cn2)c1OC` [Example 12, 6-(cyclopropanecarboxamido)-4-((2-methoxy-3-(1-methyl-6-oxo-1,6-dihydropyrimidin-4-yl)phenyl)amino)-N-(methyl-d3)pyridazine-3-carboxamide], the IC50 is reported as 204 nM. `[2H]C([2H])([2H])NC(=O)c1nnc(Nc2cc(C(C)(C)O)ccn2)cc1Nc1cc(F)cc(-c2ncccn2)c1OC` [Example 105, 4-((5-fluoro-2-methoxy-3-(pyrimidin-2-yl)phenyl)amino)-6-((4-(2-hydroxypropan-2-yl)pyridin-2-yl)amino)-N-(methyl-d3)pyridazine-3-carboxamide] was tested, and the IC50 was 172 nM. `[2H]C([2H])([2H])NC(=O)c1nnc(NC(=O)C2CC2)cc1Nc1cccc(-c2ncc(C3(O)CCOC3)cn2)c1OC` (stereo not shown) [Example 31, 6-(cyclopropanecarboxamido)-4-((3-(5-(3-hydroxytetrahydrofuran-3-yl)pyrimidin-2-yl)-2-methoxyphenyl)amino)-N-(methyl-d3)pyridazine-3-carboxamide] showed an IC50 of 24 nM. `[2H]C([2H])([2H])NC(=O)c1nnc(NC(=O)C2CC2)cc1Nc1cccc(-c2cnc(N3CCN(C(C)=O)CC3)cn2)c1OC` [Example 59, 4-((3-(5-(4-acetylpiperazin-1-yl)pyrazin-2-yl)-2-methoxyphenyl)amino)-6-(cyclopropanecarboxamido)-N-(methyl-d3)pyridazine-3-carboxamide] was tested, and the IC50 was 121 nM. In the case of `[2H]C([2H])([2H])NC(=O)c1nnc(NC(=O)C2CC2)cc1Nc1cccc(-c2cn(C)c(=O)cn2)c1OC` [Example 10, 6-(cyclopropanecarboxamido)-4-((2-methoxy-3-(4-methyl-5-oxo-4,5-dihydropyrazin-2-yl)phenyl)amino)-N-(methyl-d3)pyridazine-3-carboxamide], the IC50 is reported as 194 nM. For `[2H]C([2H])([2H])NC(=O)c1nnc(NC(=O)C2CC2)cc1Nc1cccc(-c2ncc(N3CCCC3=O)cn2)c1OC` [Example 112], the IC50 was 27 nM. `[2H]C([2H])([2H])NC(=O)c1nnc(Nc2cc(C(=O)N(C)C)n(C)n2)cc1Nc1cccc(-c2ncc(F)cn2)c1OC` [Example 85, 6-((5-(dimethylcarbamoyl)-1-methyl-1H-pyrazol-3-yl)amino)-4-((3-(5-fluoropyrimidin-2-yl)-2-methoxyphenyl)amino)-N-(methyl-d3)pyridazine-3-carboxamide] was tested, and the IC50 was 43 nM. `[2H]C([2H])([2H])NC(=O)c1cnc(Nc2ccn(C3CC3)n2)cc1Nc1cccc(-c2ncccn2)c1OC` [Example 69, 6-((1-cyclopropyl-1H-pyrazol-3-yl)amino)-4-((2-methoxy-3-(pyrimidin-2-yl)phenyl)amino)-N-(methyl-d3)nicotinamide] was tested, and the IC50 was 56 nM. Work on `[2H]C([2H])([2H])NC(=O)c1nnc(Nc2ccc(C3CC3)nn2)cc1Nc1cccc(-c2ncc(F)cn2)c1OC` [Example 99, 6-((6-cyclopropylpyridazin-3-yl)amino)-4-((3-(5-fluoropyrimidin-2-yl)-2-methoxyphenyl)amino)-N-(methyl-d3)pyridazine-3-carboxamide] yielded an IC50 of 71 nM. `[2H]C([2H])([2H])NC(=O)c1nnc(NC(=O)C2CC2)cc1Nc1cc(F)cc(-c2ncccn2)c1OC` [Example 7, 6-(cyclopropanecarboxamido)-4-((5-fluoro-2-methoxy-3-(pyrimidin-2-yl)phenyl)amino)-N-(methyl-d3)pyridazine-3-carboxamide] showed an IC50 of 196 nM. For `[2H]C([2H])([2H])NC(=O)c1nnc(NC(=O)C2CC2)cc1Nc1cccc(-c2ccc(S(C)(=O)=O)cn2)c1OC` [Example 110], the IC50 was 480 nM. `[2H]C([2H])([2H])NC(=O)c1nnc(NC(=O)C2CC2)cc1Nc1cccc(-c2ncc(C(=O)N(C)C3CC3)cn2)c1OC` [Example 52, 6-(cyclopropanecarboxamido)-4-((3-(5-(cyclopropyl(methyl)carbamoyl)pyrimidin-2-yl)-2-methoxyphenyl)amino)-N-(methyl-d3)pyridazine-3-carboxamide] was tested, and the IC50 was 50 nM.
